The text below walks through data of patent publication US20250262195A1, “METHOD TO PREVENT AND TREAT DIABETIC RETINOPATHY BY CALCIUM CHANNEL BLOCKERS, ANGIOTENSIN CONVERTING ENZYME INHIBITORS, AND ANGIOTENSIN RECEPTOR BLOCKERS” (priority 2022, published 2025).

Holding throughout (assay type): in vivo, human
For assay [1], the system named is patients with diabetic retinopathy. Kind of assay: Experimental use: vasodilators applied to patients' eyes, progression monitored at follow-up appointments. The settings on record: applied to the eye; based on prior experience and observation during treatment of patients.
The subject of assay [2] is patient diagnosed with diabetic retinopathy. Briefly: Treatment of a patient diagnosed with diabetic retinopathy, one eye treated and the other left untreated. The source says: A patient is diagnosed with diabetic retinopathy. A composition comprising the calcium channel blocker nifedipine is directly applied to the vitreous surface of one eye while the other eye is left untreated. […] A patient is diagnosed with diabetic retinopathy. A composition comprising the ACE inhibitor enalapril is directly applied to the vitreous surface of one eye while the other eye is left untreated. […] A patient is diagnosed with diabetic retinopathy. A composition comprising the angiotensin receptor blocker losartan is directly applied to the vitreous surface of one eye while the other eye is left untreated. […] A patient is diagnosed with diabetic retinopathy. A composition comprising the calcium channel blocker nifedipine is applied to the eye by intravitreal or intraocular injection while the other eye is left untreated. […] A patient is diagnosed with diabetic retinopathy. A composition comprising the ACE inhibitor enalapril is applied to the eye by intravitreal or intraocular injection while the other eye is left untreated. […] A patient is diagnosed with diabetic retinopathy. A composition comprising the angiotensin receptor blocker losartan is applied to the eye by intravitreal or intraocular injection while the other eye is left untreated.

In assay [3] the test system is patient successfully treated for diabetic retinopathy. Kind of assay: Prevention of recurrence in a patient successfully treated for diabetic retinopathy, one eye treated and the other left untreated. The settings on record: untreated eye shows signs of recurrence. The source says:
A composition comprising the calcium channel blocker nifedipine is directly applied to the vitreous surface of one eye while the other eye is left untreated. […] A composition comprising the ACE inhibitor enalapril is directly applied to the vitreous surface of one eye while the other eye is left untreated. […] A composition comprising the angiotensin receptor blocker losartan is directly applied to the vitreous surface of one eye while the other eye is left untreated. […] A composition comprising the calcium channel blocker nifedipine is applied to the eye by intravitreal or intraocular injection while the other eye is left untreated. […] A composition comprising the ACE inhibitor enalapril is applied to the eye by intravitreal or intraocular injection while the other eye is left untreated. […] A composition comprising the angiotensin receptor blocker losartan is applied to the eye by intravitreal or intraocular injection while the other eye is left untreated.

Assay [4] deals with patient with diabetic retinopathy. Kind of assay: Topical ramiprilat formulation to the eye of a patient with diabetic retinopathy. Here is the method: In this example, a patient with diabetic retinopathy is administered a topical formulation comprising ramiprilat to the eye. […] The diabetic retinopathy is therefore treated by the topical formulation.
Where [5] appears, read: composition applied by intravitreal or intraocular injection.
Where [6] appears, read: composition directly applied to the vitreous surface of one eye.

Regarding `CCCC(=O)OCOC(=O)C1=C(C)NC(C)=C(C(=O)OC)C1c1cccc(Cl)c1Cl` (stereo not drawn) [clevidipine], the “effectiveness for the treatment of diabetic retinopathy or its symptoms” value in assay [1] is listed as “effective”.

As to `CCOC(=O)[C@H](CCc1ccccc1)N[C@@H](C)C(=O)N1CCC[C@H]1C(=O)O` [enalapril], the “symptoms of diabetic retinopathy, treated eye compared to untreated eye” value in assay [2] (setting [5]) and in assay [2] (setting [6]) was “reduced symptoms of diabetic retinopathy” in each case. Also, the “development (recurrence) of diabetic retinopathy in the treated eye” value in assay [3] (setting [5]) and in assay [3] (setting [6]) was “not develop diabetic retinopathy” throughout.

In the case of `COC(=O)C1=C(C)NC(C)=C(C(=O)OC(C)C)C1c1cccc2nonc12` (stereo not drawn) [isradipine], the “effectiveness for the treatment of diabetic retinopathy or its symptoms” value in assay [1] is “effective”.

Turning to `CCCCc1nc(Cl)c(CO)n1Cc1ccc(-c2ccccc2-c2nn[nH]n2)cc1` [losartan], the “symptoms of diabetic retinopathy, treated eye compared to untreated eye” value in assay [2] (setting [5]) and in assay [2] (setting [6]) was “reduced symptoms of diabetic retinopathy” in each case. The “development (recurrence) of diabetic retinopathy in the treated eye” value in assay [3] (setting [5]) and in assay [3] (setting [6]) was “not develop diabetic retinopathy” in each case.

In the case of Ramiprilat, in assay [4], the “capillary blood supply to the eye” value is “increases the capillary blood supply”, the “capillary networks in the eye” value is given as “grows capillary networks”, the diabetic retinopathy outcome is recorded as “treated” and the intraocular pressure entry was “reduction in intraocular pressure”. For the same molecule, the optic nerve result in assay [4] is given as “repair to the optic nerve”.
